Here are results for 20 compounds from patent US20140315876A1, “BETA-LACTAMASE INHIBITORS” (priority 2013, published 2014).

SMILES strings stand for the structures. Counter-ions that a name gives are not always drawn.

The test deals with bacterial strains that express the class D cephalosporinase OXA-15. Description: Synergy MIC / standard BLI potentiation MIC assay, strains expressing OXA-15. The conditions noted are these: in the presence of a β-lactam; comparator Avibactam (comparator compound CCC). It counts as cell-based, E. coli. On the procedure: The experimental protocol was performed according to Clinical and Laboratory Standards Institute (CLSI) guidelines with modifications as described below (CLSI guidelines can be derived from the CLSI document M07-A9 published in January 2012: “Methods for Dilution Antimicrobial Susceptibility Tests for Bacteria That Grow Aerobically; Approved Standard-Ninth Edition”).
To prepare for MIC testing, frozen glycerol stocks of clinical isolates (Klebsiella pneumoniae, Eschericia coli, Enterobacter spp, Citrobacter spp, or Pseudomonas aeruginosa) were used to streak for isolated colonies on rich, non-selective, tryptic soy agar containing 5% sheep's blood (TSAB). Frozen glycerol stocks of laboratory engineered, isogenic E. coli strains, which contain cloned β-lactamase expressing plasmids were used to streak for isolated colonies on rich, selective LB agar supplemented with 25 μg/mL tetracycline to maintain the plasmid. All strains were incubated at 37° C. for 18-24 hrs.
On the day of testing, primary cultures were started by scraping off 5-10 colonies from the TSAB plates containing clinical strains or the tetracycline supplemented LB plates containing engineered strains. The clinical strain material was suspended in ˜5 mL of cation adjusted Mueller Hinton Broth (CAMHB) in 14 mL culture tubes. The engineered strain material was suspended in CAMHB (supplemented with 25 μg/mL tetracycline) in 14 mL culture tubes. All strains were incubated at 37° C. with aeration (200 rpm) for ˜2 hrs until the optical density at 600 nm (OD600) was ≧0.1.
The two compound components of the assay were each diluted in CAMHB and added to the 96-well broth microdilution assay plates. 50 μL of the β-lactam was added to each well of the assay plate in 2-fold dilutions with final concentrations ranging from 128 to 0.13 μg/mL. 25 μL of the BLI compound was added to all wells in the broth microdilution plates at a final concentration of 4 μg/mL. Inoculum cultures were prepared by standardizing the primary cultures to OD600=0.1 and then adding 20 μL of the adjusted primary culture per 1 mL CAMHB for clinical strains or CAMHB (supplemented with tetracycline at 100 μg/mL) for engineered strains, so that the final inoculum density was ˜10^5 colony forming units per milliliter. Diluted inoculum cultures were used to inoculate 25 μL per well in 96-well broth microdilution assay plates. The final volume of each well was 100 μL and contained a β-lactam at different concentrations, a BLI compound at 4 μg/mL concentration, the bacterial culture at an OD600 of approximately 0.001 and when necessary tetracycline at 25 μg/mL.
Plates were incubated for 18-20 hours at 37° C. with aeration (200 rpm). Following incubation, growth was confirmed visually placing plates over a viewing apparatus (stand with a mirror underneath) and then OD600 was measured using a SpectraMax 340PC384 plate reader (Molecular Devices, Sunnyvale, Calif.). Growth was defined as turbidity that could be detected with the naked eye or achieving minimum OD600 of 0.1. MIC values were defined as the lowest concentration producing no visible turbidity.
The synergy MIC (sMIC) assay determines the concentration of the BLI required to potentiate the activity of a fixed concentration of a β-lactam antibiotic against β-lactamase producing bacterial strains. The experimental protocol was performed according to Clinical and Laboratory Standards Institute (CLSI) guidelines with modifications as described below (CLSI guidelines can be derived from the CLSI document M07-A9 published in January 2012: “Methods for Dilution Antimicrobial Susceptibility Tests for Bacteria That Grow Aerobically; Approved Standard-Ninth Edition”). […]
For the compound `N=C(N)NCc1nnc([C@@H]2CC[C@@H]3CN2C(=O)N3OS(=O)(=O)O)o1` [Compound 704, (2S,5R)-2-(5-(guanidinomethyl)-1,3,4-oxadiazol-2-yl)-7-oxo-1,6-diazabicyclo[3.2.1]octan-6-yl hydrogen sulfate], the “activity against bacterial strains that express the class D cephalosporinase OXA-15, compared with Avibactam” value (from here on “activity … compared with Avibactam”) is recorded as “more active than Avibactam”.

`Nc1nnc([C@@H]2CC[C@@H]3CN2C(=O)N3OS(=O)(=O)O)o1` [Compound 707, (2S,5R)-2-(5-amino-1,3,4-oxadiazol-2-yl)-7-oxo-1,6-diazabicyclo[3.2.1]octan-6-yl hydrogen sulfate]: the “activity … compared with Avibactam” value is “more active than Avibactam”.

For `N=C(N)N1CCC(c2nnc([C@@H]3CC[C@@H]4CN3C(=O)N4OS(=O)(=O)O)o2)CC1` [Compound 712, (2S,5R)-2-(5-(1-carbamimidoylpiperidin-4-yl)-1,3,4-oxadiazol-2-yl)-7-oxo-1,6-diazabicyclo[3.2.1]octan-6-yl hydrogen sulfate], the “activity … compared with Avibactam” value is “more active than Avibactam”.

Consider `O=C1N2C[C@@H](CC[C@H]2c2nnc(N3CCNCC3)o2)N1OS(=O)(=O)O` [Compound 713, (2S,5R)-7-oxo-2-(5-(piperazin-1-yl)-1,3,4-oxadiazol-2-yl)-1,6-diazabicyclo[3.2.1]octan-6-yl hydrogen sulfate], for which the “activity … compared with Avibactam” value is reported as “more active than Avibactam”.

`N=C(N)NCCCc1nnc([C@@H]2CC[C@@H]3CN2C(=O)N3OS(=O)(=O)O)o1` [Compound 714, (2S,5R)-2-(5-(3-guanidinopropyl)-1,3,4-oxadiazol-2-yl)-7-oxo-1,6-diazabicyclo[3.2.1]octan-6-yl hydrogen sulfate]: the “activity … compared with Avibactam” value was “more active than Avibactam”.

`NCC(O)c1nnc([C@@H]2CC[C@@H]3CN2C(=O)N3OS(=O)(=O)O)o1` (stereo partly drawn) [Compound 715, (2S,5R)-2-(5-(2-amino-1-hydroxyethyl)-1,3,4-oxadiazol-2-yl)-7-oxo-1,6-diazabicyclo[3.2.1]octan-6-yl hydrogen sulfate]: the “activity … compared with Avibactam” value is listed as “more active than Avibactam”.

For the compound `NCCNCCc1nnc([C@@H]2CC[C@@H]3CN2C(=O)N3OS(=O)(=O)O)o1` [Compound 716, (2S,5R)-2-(5-(2-((2-aminoethyl)amino)ethyl)-1,3,4-oxadiazol-2-yl)-7-oxo-1,6-diazabicyclo[3.2.1]octan-6-yl hydrogen sulfate], the “activity … compared with Avibactam” value is listed as “more active than Avibactam”.

Regarding `NCC(N)c1nnc([C@@H]2CC[C@@H]3CN2C(=O)N3OS(=O)(=O)O)o1` (stereo partly drawn) [Compound 717, (2S,5R)-2-(5-(1,2-diaminoethyl)-1,3,4-oxadiazol-2-yl)-7-oxo-1,6-diazabicyclo[3.2.1]octan-6-yl hydrogen sulfate], the “activity … compared with Avibactam” value was “more active than Avibactam”.

As for `O=C1N2C[C@@H](CC[C@H]2c2nnc(C3CCNCC3)s2)N1OS(=O)(=O)O` [Compound 719, (2S,5R)-7-oxo-2-(5-(piperidin-4-yl)-1,3,4-thiadiazol-2-yl)-1,6-diazabicyclo[3.2.1]octan-6-yl hydrogen sulfate], the “activity … compared with Avibactam” value is recorded as “more active than Avibactam”.

As for `O=C1N2C[C@@H](CC[C@H]2c2nnc(CC3CNC3)o2)N1OS(=O)(=O)O` [Compound 725, (2S,5R)-2-(5-(azetidin-3-ylmethyl)-1,3,4-oxadiazol-2-yl)-7-oxo-1,6-diazabicyclo[3.2.1]octan-6-yl hydrogen sulfate], the “activity … compared with Avibactam” value was “more active than Avibactam”.

In the case of `NCC(O)Cc1nnc([C@@H]2CC[C@@H]3CN2C(=O)N3OS(=O)(=O)O)o1` (stereo partly drawn) [Compound 733, (2S,5R)-2-(5-(3-amino-2-hydroxypropyl)-1,3,4-oxadiazol-2-yl)-7-oxo-1,6-diazabicyclo[3.2.1]octan-6-yl hydrogen sulfate], the “activity … compared with Avibactam” value is on record as “more active than Avibactam”.

In the case of `N=C(N)N[C@H]1C[C@H](c2nnc([C@@H]3CC[C@@H]4CN3C(=O)N4OS(=O)(=O)O)o2)C1` [Compound 748, (2S,5R)-2-(5-((1r,3S)-3-guanidinocyclobutyl)-1,3,4-oxadiazol-2-yl)-7-oxo-1,6-diazabicyclo[3.2.1]octan-6-yl hydrogen sulfate], the “activity … compared with Avibactam” value is “more active than Avibactam”.

Turning to `N[C@H]1C[C@H](NCc2nnc([C@@H]3CC[C@@H]4CN3C(=O)N4OS(=O)(=O)O)o2)C1` [Compound 757, (2S,5R)-2-(5-((((1r,3S)-3-aminocyclobutyl)amino)methyl)-1,3,4-oxadiazol-2-yl)-7-oxo-1,6-diazabicyclo[3.2.1]octan-6-yl hydrogen sulfate], the “activity … compared with Avibactam” value is listed as “more active than Avibactam”.

`O=C1N2C[C@@H](CC[C@H]2c2nnc(CNC3CCNCC3)o2)N1OS(=O)(=O)O` [Compound 769, (2S,5R)-7-oxo-2-(5-((piperidin-4-ylamino)methyl)-1,3,4-oxadiazol-2-yl)-1,6-diazabicyclo[3.2.1]octan-6-yl hydrogen sulfate]: the “activity … compared with Avibactam” value is recorded as “more active than Avibactam”.

As to `NC1CCN(c2nnc([C@@H]3CC[C@@H]4CN3C(=O)N4OS(=O)(=O)O)o2)CC1` [Compound 773, (2S,5R)-2-(5-(4-aminopiperidin-1-yl)-1,3,4-oxadiazol-2-yl)-7-oxo-1,6-diazabicyclo[3.2.1]octan-6-yl hydrogen sulfate], the “activity … compared with Avibactam” value is listed as “more active than Avibactam”.

Regarding `O=C1N2C[C@@H](CC[C@H]2c2nnc([C@@H]3CNCCN3)o2)N1OS(=O)(=O)O` [Compound 778, (2S,5R)-7-oxo-2-(5-((S)-piperazin-2-yl)-1,3,4-oxadiazol-2-yl)-1,6-diazabicyclo[3.2.1]octan-6-yl hydrogen sulfate], the “activity … compared with Avibactam” value is “more active than Avibactam”.

As for `N[C@H]1CC[C@@H](c2nnc([C@@H]3CC[C@@H]4CN3C(=O)N4OS(=O)(=O)O)o2)CC1` [Compound 780, (2S,5R)-2-(5-((1s,4R)-4-aminocyclohexyl)-1,3,4-oxadiazol-2-yl)-7-oxo-1,6-diazabicyclo[3.2.1]octan-6-yl hydrogen sulfate], the “activity … compared with Avibactam” value is given as “more active than Avibactam”.

Regarding `N[C@H]1CC[C@H](c2nnc([C@@H]3CC[C@@H]4CN3C(=O)N4OS(=O)(=O)O)o2)CC1` [Compound 781, (2S,5R)-2-(5-((1r,4S)-4-aminocyclohexyl)-1,3,4-oxadiazol-2-yl)-7-oxo-1,6-diazabicyclo[3.2.1]octan-6-yl hydrogen sulfate], the “activity … compared with Avibactam” value is recorded as “more active than Avibactam”.

As for `O=C1N2C[C@@H](CC[C@H]2c2nnc(CCCN3CCNCC3)o2)N1OS(=O)(=O)O` [Compound 792, (2S,5R)-7-oxo-2-(5-(3-(piperazin-1-yl)propyl)-1,3,4-oxadiazol-2-yl)-1,6-diazabicyclo[3.2.1]octan-6-yl hydrogen sulfate], the “activity … compared with Avibactam” value is reported as “more active than Avibactam”.

On to `O=C1N2C[C@@H](CC[C@H]2c2nnc(N3CCNCC3)s2)N1OS(=O)(=O)O` [Compound 797, (2S,5R)-7-oxo-2-(5-(piperazin-1-yl)-1,3,4-thiadiazol-2-yl)-1,6-diazabicyclo[3.2.1]octan-6-yl hydrogen sulfate], for which the “activity … compared with Avibactam” value is given as “more active than Avibactam”.
